Molecules are shown by their SMILES. pKi: −log10 of the molar value. Some results are limits rather than exact numbers.

This experiment concerns the target T1, Leukotriene B4 receptor 2 (Homo sapiens, UniProt Q9NPC1).
T1 sequence (Q9NPC1 whole entry): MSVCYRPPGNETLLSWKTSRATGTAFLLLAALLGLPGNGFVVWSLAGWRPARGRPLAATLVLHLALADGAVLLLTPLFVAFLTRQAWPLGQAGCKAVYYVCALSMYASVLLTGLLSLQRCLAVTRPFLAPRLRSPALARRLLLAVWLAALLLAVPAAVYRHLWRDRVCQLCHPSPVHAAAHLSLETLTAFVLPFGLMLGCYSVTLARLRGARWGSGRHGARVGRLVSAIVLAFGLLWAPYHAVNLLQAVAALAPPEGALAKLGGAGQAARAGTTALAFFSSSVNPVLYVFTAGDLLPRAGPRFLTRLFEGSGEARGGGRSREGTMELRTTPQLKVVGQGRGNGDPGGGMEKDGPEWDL
Compound `CCCCC/C=C\C\C=C/C=C/C=C/[C@@H](SC[C@H](N)C(=O)O)[C@@H](O)CCCC(=O)O` [(5S-(5R*,6S*(S*),7E,9E,11Z,14Z))-6-((2-Amino-2-carboxyethyl)thio)-5-hydroxy-7,9,11,14-eicosatetraenoic acid] gave a pKi of 6.16.
`CCCCCC=CCC=CC=CC=CC(SCC(NC(=O)CCC(N)C(=O)O)C(=O)NCC(=O)O)C(O)CCCC(=O)O` (stereo unspecified) [CAS_5283121] gave a pKi of 8.47.
Take `COc1cc(C(=O)NS(=O)(=O)c2ccccc2C)ccc1Cc1cn(C)c2ccc(NC(=O)OC3CCCC3)cc12` [cyclopentyl 3-(2-methoxy-4-((o-tolylsulfonyl)carbamoyl)benzyl)-1-methylindole-5-carbamate]: the pKi was 5.13.
`O=C(Nc1ccc2c(=O)cc(-c3nnn[nH]3)oc2c1)c1ccc(OCCCCc2ccccc2)cc1` [CAS_103177-37-3] gave a negative-log Ki (pKi) of 5.44.
In turn, `CC(C)(O)c1ccccc1CCC(S)c1cccc(C=Cc2ccc3ccc(Cl)cc3n2)c1` (stereo unspecified) [NSC_5311297] showed a pKi of less than 5.00.
The result for `CCCCC/C=C\C\C=C/C=C/C=C/[C@@H](SC[C@H](N)C(=O)NCC(=O)O)[C@@H](O)CCCC(=O)O` [5S-hydroxy-6R-(S-cysteinylglycinyl)-7E,9E,11E,14Z-eicosatetraenoic acid] reads 8.46.
